In patent publication US10004701B2, “Methods and compositions for treating infection” (UNIVERSITY OF ROCHESTER, priority 2012, dated 2018):
Counter-ions that a name gives are not always drawn. Like-named read-outs stand apart in the source and are kept apart here.

Experiments:
Test in all cases: AK assay 384-well format, Prestwick library screening
E. faecium = format: cell-based, Enterococcus faecium; details: for fold induction at 50 µM: Enterococcus faecium, 3 h
[1] = tested on: S. aureus strain USA300-0114; format: cell-based, Staphylococcus aureus; details: for fold induction at 50 µM: Staphylococcus aureus, USA300, 3 h
K. pneumoniae = format: cell-based, Klebsiella pneumoniae; details: for fold induction at 50 µM: Klebsiella pneumoniae, 3 h
[2] = tested on: A. baumannii strain 98-37-09; format: cell-based, Acinetobacter baumannii; details: for fold induction at 50 µM: Acinetobacter baumannii, 983709, 3 h
P. aeruginosa = format: cell-based, Pseudomonas aeruginosa; details: for fold induction at 50 µM: Pseudomonas aeruginosa, 3 h
E. cloacae = format: cell-based, Enterobacter cloacae; details: for fold induction at 50 µM: Enterobacter cloacae, 3 h
E. coli = format: cell-based, Escherichia coli; details: for fold induction at 50 µM: Escherichia coli, 3 h
[3] = planktonic E. faecium, 50 μM final drug concentration, cutoff for positive-scoring molecules 3-fold increase, read-out: AK-based Prestwick Library Screening Results, E. faecium (increase in extracellular AK activity)
[4] = planktonic S. aureus, 50 μM final drug concentration, cutoff for positive-scoring molecules 3-fold increase, read-out: AK-based Prestwick Library Screening Results, S. aureus (increase in extracellular AK activity)
[5] = planktonic K. pneumoniae, 50 μM final drug concentration, cutoff for positive-scoring molecules 3-fold increase, read-out: AK-based Prestwick Library Screening Results, K. pneumoniae (increase in extracellular AK activity)
[6] = planktonic A. baumannii, 50 μM final drug concentration, cutoff for positive-scoring molecules 3-fold increase, read-out: AK-based Prestwick Library Screening Results, A. baumannii (increase in extracellular AK activity)
[7] = planktonic P. aeruginosa, 50 μM final drug concentration, cutoff for positive-scoring molecules 3-fold increase, read-out: AK-based Prestwick Library Screening Results, P. aeruginosa (increase in extracellular AK activity)
[8] = planktonic E. cloacae, 50 μM final drug concentration, cutoff for positive-scoring molecules 3-fold increase, read-out: AK-based Prestwick Library Screening Results, E. cloacae (increase in extracellular AK activity)
[9] = planktonic E. coli, 50 μM final drug concentration, cutoff for positive-scoring molecules 3-fold increase, read-out: AK-based Prestwick Library Screening Results, E. coli (increase in extracellular AK activity)
[10] = 50 μM final drug concentration, cutoff for positive-scoring molecules 3-fold increase, read-out: AK-based Prestwick Library Screening Results, E. faecium (fold increase in extracellular AK activity)
[11] = 50 μM final drug concentration, cutoff for positive-scoring molecules 3-fold increase, read-out: AK-based Prestwick Library Screening Results, S. aureus (fold increase in extracellular AK activity)
[12] = 50 μM final drug concentration, cutoff for positive-scoring molecules 3-fold increase, read-out: AK-based Prestwick Library Screening Results, K. pneumoniae (fold increase in extracellular AK activity)
[13] = 50 μM final drug concentration, cutoff for positive-scoring molecules 3-fold increase, read-out: AK-based Prestwick Library Screening Results, A. baumannii (fold increase in extracellular AK activity)
[14] = 50 μM final drug concentration, cutoff for positive-scoring molecules 3-fold increase, read-out: AK-based Prestwick Library Screening Results, P. aeruginosa (fold increase in extracellular AK activity)
[15] = 50 μM final drug concentration, cutoff for positive-scoring molecules 3-fold increase, read-out: AK-based Prestwick Library Screening Results, E. cloacae (fold increase in extracellular AK activity)
[16] = 50 μM final drug concentration, cutoff for positive-scoring molecules 3-fold increase, read-out: AK-based Prestwick Library Screening Results, E. coli (fold increase in extracellular AK activity)
[17] = 50 μM final drug concentration, […]

Clc1cnccn1 [Compound 2-Chloropyrazine, 2-Chloropyrazine]
fold induction at 50 µM (E. faecium; planktonic E. faecium, 50 μM final drug concentration, positive cutoff 3-fold increase, read-out: AK-based Prestwick library screening result, E. faecium (fold increase in extracellular AK activity)): 1.1
fold induction at 50 µM ([1]; planktonic S. aureus, 50 μM final drug concentration, positive cutoff 3-fold increase, read-out: AK-based Prestwick library screening result, S. aureus (fold increase in extracellular AK activity)): 1.1
fold induction at 50 µM (K. pneumoniae; planktonic K. pneumoniae, 50 μM final drug concentration, positive cutoff 3-fold increase, read-out: AK-based Prestwick library screening result, K. pneumoniae (fold increase in extracellular AK activity)): 0.9
fold induction at 50 µM ([2]; planktonic A. baumannii, 50 μM final drug concentration, positive cutoff 3-fold increase, read-out: AK-based Prestwick library screening result, A. baumannii (fold increase in extracellular AK activity)): 1.2
fold induction at 50 µM (P. aeruginosa; planktonic P. aeruginosa, 50 μM final drug concentration, positive cutoff 3-fold increase, read-out: AK-based Prestwick library screening result, P. aeruginosa (fold increase in extracellular AK activity)): 1
fold induction at 50 µM (E. cloacae; planktonic E. cloacae, 50 μM final drug concentration, positive cutoff 3-fold increase, read-out: AK-based Prestwick library screening result, E. cloacae (fold increase in extracellular AK activity)): 1.4
fold induction at 50 µM (E. coli; planktonic E. coli, 50 μM final drug concentration, positive cutoff 3-fold increase, read-out: AK-based Prestwick library screening result, E. coli (fold increase in extracellular AK activity)): 1

C[C@@H]1C[C@H]2[C@@H]3CCC4=CC(=O)C=C[C@]4(C)[C@@]3(Cl)[C@@H](O)C[C@]2(C)[C@@]1(OC(=O)c1ccco1)C(=O)CCl [Mometasone furoate]
fold induction at 50 µM (E. faecium; [3]): 1
fold induction at 50 µM [1, 4]: 0.4
fold induction at 50 µM (K. pneumoniae; [5]): 0.7
fold induction at 50 µM [2, 6]: 0.9
fold induction at 50 µM (P. aeruginosa; [7]): 0.6
fold induction at 50 µM (E. cloacae; [8]): 0.9
fold induction at 50 µM (E. coli; [9]): 0.9

COC(=O)C1=CCCN(C)C1 [Arecoline hydrobromide]
fold induction at 50 µM (E. faecium; planktonic E. faecium, 50 μM final drug concentration, 384-well, […], read-out: AK-based Prestwick Library Screening Results: E. faecium (increase in extracellular AK activity)): 0.9
fold induction at 50 µM ([1]; planktonic S. aureus, 50 μM final drug concentration, 384-well, […], read-out: AK-based Prestwick Library Screening Results: S. aureus (increase in extracellular AK activity)): 0.4
fold induction at 50 µM (K. pneumoniae; planktonic K. pneumoniae, 50 μM final drug concentration, 384-well, […], read-out: AK-based Prestwick Library Screening Results: K. pneumoniae (increase in extracellular AK activity)): 0.4
fold induction at 50 µM ([2]; planktonic A. baumannii, 50 μM final drug concentration, 384-well, […], read-out: AK-based Prestwick Library Screening Results: A. baumannii (increase in extracellular AK activity)): 0.4
fold induction at 50 µM (P. aeruginosa; planktonic P. aeruginosa, 50 μM final drug concentration, 384-well, […], read-out: AK-based Prestwick Library Screening Results: P. aeruginosa (increase in extracellular AK activity)): 0.4
fold induction at 50 µM (E. cloacae; planktonic E. cloacae, 50 μM final drug concentration, 384-well, […], read-out: AK-based Prestwick Library Screening Results: E. cloacae (increase in extracellular AK activity)): 0.3
fold induction at 50 µM (E. coli; planktonic E. coli, 50 μM final drug concentration, 384-well, […], read-out: AK-based Prestwick Library Screening Results: E. coli (increase in extracellular AK activity)): 0.4

CC(C)NCC(O)c1ccc(NS(C)(=O)=O)cc1 (stereo not drawn) [Sotalol hydrochloride]
fold induction at 50 µM (E. faecium; [10]): 0.8
fold induction at 50 µM [1, 11]: 0.4
fold induction at 50 µM (K. pneumoniae; [12]): 0.5
fold induction at 50 µM [2, 13]: 0.5
fold induction at 50 µM (P. aeruginosa; [14]): 0.4
fold induction at 50 µM (E. cloacae; [15]): 0.4
fold induction at 50 µM (E. coli; [16]): 0.4

COC(=O)[C@H]1[C@H]2C[C@@H]3c4[nH]c5cc(OC)ccc5c4CCN3C[C@H]2C[C@@H](OC(=O)c2cc(OC)c(OC)c(OC)c2)[C@@H]1OC [Reserpine]
fold induction at 50 µM (E. faecium; [10]): 1.1
fold induction at 50 µM [1, 11]: 1.3
fold induction at 50 µM (K. pneumoniae; [12]): 1.2
fold induction at 50 µM [2, 13]: 1.5
fold induction at 50 µM (P. aeruginosa; [14]): 1.4
fold induction at 50 µM (E. cloacae; [15]): 1.5
fold induction at 50 µM (E. coli; [16]): 1.3

C[n+]1ccccc1/C=N/O [Pralidoxime chloride]
fold induction at 50 µM (E. faecium; read-out: AK-based Prestwick Library Screening Results, E. faecium (fold increase in extracellular AK activity)): 1
fold induction at 50 µM ([1]; read-out: AK-based Prestwick Library Screening Results, S. aureus (fold increase in extracellular AK activity)): 1.3
fold induction at 50 µM (K. pneumoniae; read-out: AK-based Prestwick Library Screening Results, K. pneumoniae (fold increase in extracellular AK activity)): 1
fold induction at 50 µM ([2]; read-out: AK-based Prestwick Library Screening Results, A. baumannii (fold increase in extracellular AK activity)): 1.4
fold induction at 50 µM (P. aeruginosa; read-out: AK-based Prestwick Library Screening Results, P. aeruginosa (fold increase in extracellular AK activity)): 1.2
fold induction at 50 µM (E. cloacae; read-out: AK-based Prestwick Library Screening Results, E. cloacae (fold increase in extracellular AK activity)): 1.5
fold induction at 50 µM (E. coli; read-out: AK-based Prestwick Library Screening Results, E. coli (fold increase in extracellular AK activity)): 1.3

(−)-MK 801 hydrogen maleate
AK-based Prestwick Library Screening Results, E. faecium (fold increase in extracellular AK activity) (E. faecium; [17]): 1.0
AK-based Prestwick Library Screening Results, S. aureus (fold increase in extracellular AK activity) [1, 17]: 1.1
AK-based Prestwick Library Screening Results, K. pneumoniae (fold increase in extracellular AK activity) (K. pneumoniae; [17]): 1.0
AK-based Prestwick Library Screening Results, A. baumannii (fold increase in extracellular AK activity) [2, 17]: 1.1
AK-based Prestwick Library Screening Results, P. aeruginosa (fold increase in extracellular AK activity) (P. aeruginosa; [17]): 1.3
AK-based Prestwick Library Screening Results, E. cloacae (fold increase in extracellular AK activity) (E. cloacae; [17]): 1.9
AK-based Prestwick Library Screening Results, E. coli (fold increase in extracellular AK activity) (E. coli; [17]): 1.2

COc1c2occc2c(OC)c2c(=O)cc(C)oc12 [Khellin]
fold induction at 50 µM (E. faecium; 50 μM final drug concentration, 384-well format, cutoff for positive-scoring molecules 3-fold increase, read-out: AK-based Prestwick Library Screening Results, E. faecium (increase in extracellular AK activity)): 0.9
fold induction at 50 µM ([1]; 50 μM final drug concentration, 384-well format, cutoff for positive-scoring molecules 3-fold increase, read-out: AK-based Prestwick Library Screening Results, S. aureus (increase in extracellular AK activity)): 0.7
fold induction at 50 µM (K. pneumoniae; 50 μM final drug concentration, 384-well format, cutoff for positive-scoring molecules 3-fold increase, read-out: AK-based Prestwick Library Screening Results, K. pneumoniae (increase in extracellular AK activity)): 0.6
fold induction at 50 µM ([2]; 50 μM final drug concentration, 384-well format, cutoff for positive-scoring molecules 3-fold increase, read-out: AK-based Prestwick Library Screening Results, A. baumannii (increase in extracellular AK activity)): 0.7
fold induction at 50 µM (P. aeruginosa; 50 μM final drug concentration, 384-well format, cutoff for positive-scoring molecules 3-fold increase, read-out: AK-based Prestwick Library Screening Results, P. aeruginosa (increase in extracellular AK activity)): 0.7
fold induction at 50 µM (E. cloacae; 50 μM final drug concentration, 384-well format, cutoff for positive-scoring molecules 3-fold increase, read-out: AK-based Prestwick Library Screening Results, E. cloacae (increase in extracellular AK activity)): 0.7
fold induction at 50 µM (E. coli; 50 μM final drug concentration, 384-well format, cutoff for positive-scoring molecules 3-fold increase, read-out: AK-based Prestwick Library Screening Results, E. coli (increase in extracellular AK activity)): 0.6

CN[C@@H]1[C@@H](O)[C@@H](O[C@@H]2[C@@H](O)[C@H](O[C@H]3OC(CN)=CC[C@H]3N)[C@@H](N)C[C@H]2N)OC[C@]1(C)O [Sisomicin sulfate]
fold induction at 50 µM (E. faecium; [3]): 0.9
fold induction at 50 µM [1, 4]: 0.6
fold induction at 50 µM (K. pneumoniae; [5]): 0.6
fold induction at 50 µM [2, 6]: 0.9
fold induction at 50 µM (P. aeruginosa; [7]): 0.9
fold induction at 50 µM (E. cloacae; [8]): 1
fold induction at 50 µM (E. coli; [9]): 0.8
